We go through one compound from patent EP0124891A2, “Antimutagenic agent and method of inactivating the mutagenicity of foods and beverages by using said agent” (SUNTORY LIMITED, priority 1983, dated 1984).

In data set [1] the test system is human cells. Conditions: cited from earlier work.
The subject of data set [2] is mouse deodenum. As to conditions: 0.1 % of hydrogen peroxide; cited from earlier work.
The test system of data set [3] is Neuros^pera crassa. As to conditions: cited from earlier work.
For data set [4], the system named is Salmonella typhimurium TA 100. Briefly: Mutagenicity and antimutagenic effect, Salmonella test (Ames), preincubation method, revertant colony count. As to conditions: Salmonella typhimurium TA 100 (histidine-requiring), 48 h, pH 7.4.
Description: Histidine-requiring Salmonella typhimurium TA 100 (hereunder S. TA 100) was used.
Instant coffee powder was dissolved in distilled water. Predetermined amounts of wheat germ preparations were also dissolved in distilled water, and 50 µl of each solution was mixed with an equal amount of the aqueous coffee solution.
Roasted coffee beans (20 g) were extracted with hot distilled water (250 ml), and the extract was filtered through coffee filter paper No. 12 manufactured by Kalita Co., Ltd. The extract was freeze-dried, and after measuring the weight of the dry product, it was dissolved in distilled water. Predetermined amounts of wheat germ preparations were also dissolved in distilled water, and 50 µl of each solution was mixed with an equal amount of the aqueous solution of coffee concentrate. […]
To 100 µl of each of the samples prepared in (iii)(a) to (f), 500 µl of 0.1 M sodium phosphate buffer (pH 7.4) plus 100 µl of a culture of S. TA 100 strain were added. […] After incubation at 37°C for 48 hours, the number of colonies forming on the plate was counted as revertants. The percent inhibition of mutagenicity can be calculated by the following formula, if necessary: [formula]
A powder of extracted coffee beans (15 mg) as prepared by the method shown in I)(iii)(b) was dissolved in distilled water to make 50 µl. […] The mutagenicity of each mixture was determined by the method shown in I)(i).

In the case of `OO` [Hydrogen peroxide, hydrogen peroxide], in data set [1], the “clastogenicity to human cells” value is “clastogenic”. In addition, in data set [2], the carcinogenicity entry is reported as “proved to cause malignant tumors”. In data set [3], the “mutagenicity to Neurospora crassa” value is given as “mutagenic”. Moreover, in data set [4], the “mutagenicity to S. TA 100” value is 160 revertants/10^8 survivors/Pmole.
